Literature values, collected in patent US8540972B2, “Sunscreen product comprising hydroxyapatite as physical filter” (Kalichem Italia S.R.L., priority 2009, dated 2013).

Test system: HeLa cells

titanium dioxide [TiO2]
fate of HeLa cells after UV irradiation in the presence of the substance: die
